Experimental data published in PubChem BioAssay AID1963435 (Molecular Pharmacology Branch, DTP, NCI, 2024).

System: PANC-1 complex spheroid growth, percent test/control
Assay: Anticancer human tumor PANC-1 cell line growth inhibition [Asc];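 further: spheroids exposed to agents for 7 days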;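 on viability, T/C: percent viability relative to DMSO vehicle wells taken as 100%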
Details: for IC50: curve of first compound; for viability, T/C: stronger effect = lower value
Procedure, shortened: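 Tumor cells were grown as multicellular spheroids with stromal HUVEC and mesenchymal stem cells and treated singly or in combination. Concentrations fell in half-log steps from the clinical Cmax, or from 10 microM where none was known.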

[1] = second compound 0.0316 µM, first compound 0.00316 µM
[2] = second compound 0.0316 µM, first compound 0.01 µM
[3] = second compound 0.0316 µM, first compound 0.0316 µM
[4] = second compound 0.0316 µM, first compound 0.1 µM
[5] = second compound 0.0316 µM, first compound 0.316 µM
[6] = second compound 0.0316 µM, first compound 1 µM
[7] = second compound 0.1 µM, first compound 0.00316 µM
[8] = second compound 0.1 µM, first compound 0.01 µM
[9] = second compound 0.1 µM, first compound 0.0316 µM
[10] = second compound 0.1 µM, first compound 0.1 µM
[11] = second compound 0.1 µM, first compound 0.316 µM
[12] = second compound 0.1 µM, first compound 1 µM
[13] = second compound 0.316 µM, first compound 0.00316 µM
[14] = second compound 0.316 µM, first compound 0.01 µM
[15] = second compound 0.316 µM, first compound 0.0316 µM
[16] = second compound 0.316 µM, first compound 0.1 µM
[17] = second compound 0.316 µM, first compound 0.316 µM
[18] = second compound 0.316 µM, first compound 1 µM
[19] = second compound 1 µM, first compound 0.00316 µM
[20] = second compound 1 µM, first compound 0.01 µM
[21] = second compound 1 µM, first compound 0.0316 µM
[22] = second compound 1 µM, first compound 0.1 µM
[23] = second compound 1 µM, first compound 0.316 µM
[24] = second compound 1 µM, first compound 1 µM
[25] = second compound 3.16 µM, first compound 0.00316 µM
[26] = second compound 3.16 µM, first compound 0.01 µM
[27] = second compound 3.16 µM, first compound 0.0316 µM
[28] = second compound 3.16 µM, first compound 0.1 µM
[29] = second compound 3.16 µM, first compound 0.316 µM
[30] = second compound 3.16 µM, first compound 1 µM
[31] = second compound 10 µM, first compound 0.00316 µM
[32] = second compound 10 µM, first compound 0.01 µM
[33] = second compound 10 µM, first compound 0.0316 µM
[34] = second compound 10 µM, first compound 0.1 µM
[35] = second compound 10 µM, first compound 0.316 µM
[36] = second compound 10 µM, first compound 1 µM

`CCN1CCN(Cc2ccc(Nc3ncc(F)c(-c4cc(F)c5nc(C)n(C(C)C)c5c4)n3)nc2)CC1` + Cc1c(S(C)(=O)=O)c(-c2cc(F)cc(N3CCN(c4ccc(NS(=O)(=O)c5ccc(NC(CCN6CCC(C(=O)OCCCP(=O)(O)O)CC6)CSc6ccccc6)c(S(=O)(=O)C(F)(F)F)c5)cc4)CC3)c2)c(-c2ccc(Cl)cc2)n1C(C)C was tested, and the IC50 (second compound 0.0316 µM) was > 1000 nM, the IC50 (second compound 0.1 µM) was > 1000 nM and the IC50 (second compound 0.316 µM) was > 1000 nM. For the same compound, the IC50 (second compound 1 µM) was > 1000 nM, the IC50 (second compound 3.16 µM) was > 1000 nM and the IC50 (second compound 10 µM) was > 1000 nM. It also gave a viability, T/C [1] of 93.5%, a viability, T/C [2] of 108% and a viability, T/C [3] of 102%. For the same compound, the viability, T/C [4] was 121%, the viability, T/C [5] was 124% and the viability, T/C [6] was 129%. The viability, T/C [7] was 96%, the viability, T/C [8] was 100% and the viability, T/C [9] was 99.5%. For the same compound, the viability, T/C [10] was 115%, the viability, T/C [11] was 121% and the viability, T/C [12] was 137%. It also gave a viability, T/C [13] of 105%, a viability, T/C [14] of 116% and a viability, T/C [15] of 108%. It also gave a viability, T/C [16] of 103%, a viability, T/C [17] of 123% and a viability, T/C [18] of 127%. It also gave a viability, T/C [19] of 104%, a viability, T/C [20] of 101% and a viability, T/C [21] of 115%. The viability, T/C [22] was 126%, the viability, T/C [23] was 115% and the viability, T/C [24] was 125%. For the same compound, the viability, T/C [25] was 110%, the viability, T/C [26] was 104% and the viability, T/C [27] was 102%. The viability, T/C [28] was 120%, the viability, T/C [29] was 123% and the viability, T/C [30] was 125%. For the same compound, the viability, T/C [31] was 171%, the viability, T/C [32] was 188% and the viability, T/C [33] was 174%. It also gave a viability, T/C [34] of 175%, a viability, T/C [35] of 168% and a viability, T/C [36] of 140%.

With `Cn1ncnc1[C@H]1c2n[nH]c(=O)c3cc(F)cc(c23)N[C@@H]1c1ccc(F)cc1` + Cc1c(S(C)(=O)=O)c(-c2cc(F)cc(N3CCN(c4ccc(NS(=O)(=O)c5ccc(NC(CCN6CCC(C(=O)OCCCP(=O)(O)O)CC6)CSc6ccccc6)c(S(=O)(=O)C(F)(F)F)c5)cc4)CC3)c2)c(-c2ccc(Cl)cc2)n1C(C)C the IC50 (second compound 0.0316 µM) was > 100 nM, the IC50 (second compound 0.1 µM) was > 100 nM and the IC50 (second compound 0.316 µM) was > 100 nM. The IC50 (second compound 1 µM) was > 100 nM, the IC50 (second compound 3.16 µM) was > 100 nM and the IC50 (second compound 10 µM) was > 100 nM. It also gave a viability, T/C (second compound 0.0316 µM, first compound 0.000316 µM) of 101%, a viability, T/C (second compound 0.0316 µM, first compound 0.001 µM) of 88.4% and a viability, T/C [1] of 98.5%. The viability, T/C [2] was 102%, the viability, T/C [3] was 110% and the viability, T/C [4] was 101%. It also gave a viability, T/C (second compound 0.1 µM, first compound 0.000316 µM) of 96.7%, a viability, T/C (second compound 0.1 µM, first compound 0.001 µM) of 103% and a viability, T/C [7] of 93.5%. The viability, T/C [8] was 108%, the viability, T/C [9] was 108% and the viability, T/C [10] was 103%. The viability, T/C (second compound 0.316 µM, first compound 0.000316 µM) was 109%, the viability, T/C (second compound 0.316 µM, first compound 0.001 µM) was 108% and the viability, T/C [13] was 106%. For the same compound, the viability, T/C [14] was 106%, the viability, T/C [15] was 104% and the viability, T/C [16] was 110%. It also gave a viability, T/C (second compound 1 µM, first compound 0.000316 µM) of 105%, a viability, T/C (second compound 1 µM, first compound 0.001 µM) of 99.3% and a viability, T/C [19] of 105%. It also gave a viability, T/C [20] of 106%, a viability, T/C [21] of 103% and a viability, T/C [22] of 109%. For the same compound, the viability, T/C (second compound 3.16 µM, first compound 0.000316 µM) was 105%, the viability, T/C (second compound 3.16 µM, first compound 0.001 µM) was 102% and the viability, T/C [25] was 107%. For the same compound, the viability, T/C [26] was 114%, the viability, T/C [27] was 112% and the viability, T/C [28] was 93.5%. The viability, T/C (second compound 10 µM, first compound 0.000316 µM) was 160%, the viability, T/C (second compound 10 µM, first compound 0.001 µM) was 176% and the viability, T/C [31] was 147%. The viability, T/C [32] was 167%, the viability, T/C [33] was 169% and the viability, T/C [34] was 139%.

`O=C(c1cc(Cc2n[nH]c(=O)c3ccccc23)ccc1F)N1CCN(C(=O)C2CC2)CC1` + Cc1c(S(C)(=O)=O)c(-c2cc(F)cc(N3CCN(c4ccc(NS(=O)(=O)c5ccc(NC(CCN6CCC(C(=O)OCCCP(=O)(O)O)CC6)CSc6ccccc6)c(S(=O)(=O)C(F)(F)F)c5)cc4)CC3)c2)c(-c2ccc(Cl)cc2)n1C(C)C was tested, and the IC50 (second compound 0.0316 µM) was > 10000 nM, the IC50 (second compound 0.1 µM) was > 10000 nM and the IC50 (second compound 0.316 µM) was > 10000 nM. The IC50 (second compound 1 µM) was > 10000 nM, the IC50 (second compound 3.16 µM) was > 10000 nM and the IC50 (second compound 10 µM) was > 10000 nM. It also gave a viability, T/C [3] of 106%, a viability, T/C [4] of 104% and a viability, T/C [5] of 107%. For the same compound, the viability, T/C [6] was 107%, the viability, T/C (second compound 0.0316 µM, first compound 3.16 µM) was 99% and the viability, T/C (second compound 0.0316 µM, first compound 10 µM) was 93.7%. It also gave a viability, T/C [9] of 89%, a viability, T/C [10] of 107% and a viability, T/C [11] of 107%. It also gave a viability, T/C [12] of 103%, a viability, T/C (second compound 0.1 µM, first compound 3.16 µM) of 117% and a viability, T/C (second compound 0.1 µM, first compound 10 µM) of 95.5%. The viability, T/C [15] was 102%, the viability, T/C [16] was 103% and the viability, T/C [17] was 112%. It also gave a viability, T/C [18] of 112%, a viability, T/C (second compound 0.316 µM, first compound 3.16 µM) of 103% and a viability, T/C (second compound 0.316 µM, first compound 10 µM) of 86.1%. It also gave a viability, T/C [21] of 112%, a viability, T/C [22] of 101% and a viability, T/C [23] of 105%. It also gave a viability, T/C [24] of 111%, a viability, T/C (second compound 1 µM, first compound 3.16 µM) of 111% and a viability, T/C (second compound 1 µM, first compound 10 µM) of 86.9%. It also gave a viability, T/C [27] of 103%, a viability, T/C [28] of 106% and a viability, T/C [29] of 106%. For the same compound, the viability, T/C [30] was 115%, the viability, T/C (second compound 3.16 µM, first compound 3.16 µM) was 119% and the viability, T/C (second compound 3.16 µM, first compound 10 µM) was 87.2%. It also gave a viability, T/C [33] of 166%, a viability, T/C [34] of 178% and a viability, T/C [35] of 187%. The viability, T/C [36] was 202%, the viability, T/C (second compound 10 µM, first compound 3.16 µM) was 171% and the viability, T/C (second compound 10 µM, first compound 10 µM) was 88.9%.

In the case of `O=C(c1ccc(F)c(F)c1Nc1ccc(I)cc1F)N1CC(O)([C@@H]2CCCCN2)C1` + Cc1c(S(C)(=O)=O)c(-c2cc(F)cc(N3CCN(c4ccc(NS(=O)(=O)c5ccc(NC(CCN6CCC(C(=O)OCCCP(=O)(O)O)CC6)CSc6ccccc6)c(S(=O)(=O)C(F)(F)F)c5)cc4)CC3)c2)c(-c2ccc(Cl)cc2)n1C(C)C, the IC50 (second compound 0.0316 µM) is reported as > 1000 nM, the IC50 (second compound 0.1 µM) is reported as > 1000 nM and the IC50 (second compound 0.316 µM) is reported as > 1000 nM. The IC50 (second compound 1 µM) was > 1000 nM, the IC50 (second compound 3.16 µM) was > 1000 nM and the IC50 (second compound 10 µM) was > 1000 nM. It also gave a viability, T/C [1] of 82.4%, a viability, T/C [2] of 88% and a viability, T/C [3] of 85.4%. The viability, T/C [4] was 86.8%, the viability, T/C [5] was 93% and the viability, T/C [6] was 89%. For the same compound, the viability, T/C [7] was 96.5%, the viability, T/C [8] was 109% and the viability, T/C [9] was 96%. The viability, T/C [10] was 84.6%, the viability, T/C [11] was 91.8% and the viability, T/C [12] was 91.1%. The viability, T/C [13] was 99.8%, the viability, T/C [14] was 93.5% and the viability, T/C [15] was 86.2%. For the same compound, the viability, T/C [16] was 89.6%, the viability, T/C [17] was 83.8% and the viability, T/C [18] was 84%. For the same compound, the viability, T/C [19] was 89.9%, the viability, T/C [20] was 87.2% and the viability, T/C [21] was 88%. The viability, T/C [22] was 87.7%, the viability, T/C [23] was 94.8% and the viability, T/C [24] was 85%. For the same compound, the viability, T/C [25] was 104%, the viability, T/C [26] was 97.1% and the viability, T/C [27] was 89.3%. For the same compound, the viability, T/C [28] was 88.6%, the viability, T/C [29] was 83.3% and the viability, T/C [30] was 78.1%. For the same compound, the viability, T/C [31] was 173%, the viability, T/C [32] was 175% and the viability, T/C [33] was 157%. For the same compound, the viability, T/C [34] was 132%, the viability, T/C [35] was 142% and the viability, T/C [36] was 131%.
